We go through 15 compounds from US20230091225A1, “Bifunctional chimeric heterocyclic compounds for targeted degradation of androgen receptors and use thereof” (HINOVA PHARMACEUTICALS INC., priority 2019, published 2023).

In this assay the target is T1, androgen receptor (AR) (Homo sapiens, UniProt P10275).
T1 sequence (P10275 1-920): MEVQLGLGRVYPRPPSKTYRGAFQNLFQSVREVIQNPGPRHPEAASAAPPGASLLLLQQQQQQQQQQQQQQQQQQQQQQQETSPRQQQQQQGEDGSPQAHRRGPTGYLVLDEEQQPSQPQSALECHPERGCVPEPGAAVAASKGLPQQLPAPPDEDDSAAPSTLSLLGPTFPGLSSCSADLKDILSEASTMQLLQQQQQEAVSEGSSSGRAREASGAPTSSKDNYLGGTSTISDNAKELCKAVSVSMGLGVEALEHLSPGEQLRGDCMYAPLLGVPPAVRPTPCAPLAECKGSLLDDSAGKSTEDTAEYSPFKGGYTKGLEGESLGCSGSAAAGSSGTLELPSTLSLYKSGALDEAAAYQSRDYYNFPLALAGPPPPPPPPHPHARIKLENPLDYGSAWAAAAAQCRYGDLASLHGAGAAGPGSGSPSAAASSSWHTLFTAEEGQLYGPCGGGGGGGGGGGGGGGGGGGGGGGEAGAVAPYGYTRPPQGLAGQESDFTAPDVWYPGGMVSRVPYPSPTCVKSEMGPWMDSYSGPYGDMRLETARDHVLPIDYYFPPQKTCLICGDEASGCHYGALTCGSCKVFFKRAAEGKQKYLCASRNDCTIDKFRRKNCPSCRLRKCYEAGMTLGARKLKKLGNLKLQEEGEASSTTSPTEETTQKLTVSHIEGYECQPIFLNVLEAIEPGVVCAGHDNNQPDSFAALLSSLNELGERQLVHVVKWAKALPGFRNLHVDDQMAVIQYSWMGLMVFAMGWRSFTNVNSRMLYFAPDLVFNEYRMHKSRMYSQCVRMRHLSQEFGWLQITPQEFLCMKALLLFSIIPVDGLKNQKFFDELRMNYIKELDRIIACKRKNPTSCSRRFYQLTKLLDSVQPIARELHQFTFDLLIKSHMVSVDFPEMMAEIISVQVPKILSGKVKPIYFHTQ
As to the kind of experiment: Degradation of androgen receptor (AR) protein in VCaP cells by Western blot. The format is cell-based. The following applies: percentage of degraded AR at 100 nM, VCaP cells, 16 h. As for the experimental part: Determination of the Degradation Activity of the Compound on Androgen Receptor (AR) Protein by Western Blot
1) VCaP cells were subcultured in cell culture media, and then the cells in good growth condition were seeded in a 12-well plate at 1 ml/well (5×10^5 cells/well), and cultured overnight in a 37° C., 5% CO2 cell incubator. 2) The test compound was prepared into a 10 mM stock solution with dimethyl sulfoxide (DMSO). Prior to use, the solution was diluted 3 times with DMSO. […] of the diluted compound solution was added to the cell culture well (ensuring that the DMSO concentration in the culture system was 0.1%), and two wells were set for each concentration. The plate was gently shaken to mix. In addition, the experiment included negative control wells (containing equal amount of DMSO) and positive control wells. 3) After culturing 16 h. the cells were lysed with RIPA cell lysate, and the protein was extracted. The protein concentration was measured with BCA kit. 5-fold concentrated protein loading buffer was added, and after heated at 100° C. for 5 min. the sample was stored at −20° C. 4) for each well, 30 μg of protein was loaded on polyacrylamide gel for electrophoresis. 5) The protein was transferred from polyacrylamide gel to PVDF membrane, and then 5% skim milk was added to close for 1 h at room temperature. The first antibody (Androgen Receptor (D6F11) XP Rabbit mAb and Anti-β-Actin Rabbit mAb) was added and incubated overnight at 4° C. The membrane was washed with TBST solution three times. 10 min for each time. The secondary antibody (horseradish peroxidase labeled goat […]) was added and incubated at room temperature for 2 h, and then the membrane was washed with TBST solution three times. 10 min for each time.
Finally, ECL chemiluminescence solution was added, and then photos were taken with automatic chemiluminescence instrument to collect pictures for analysis.
In general terms: Immunoblotting shows a protein as a band on a membrane.
For `N#Cc1ccc(O[C@H]2CC[C@H](NC(=O)c3cnc(N4CCC5(CCN(C6CCN(c7cc8c(cc7F)C(=O)N(C7CCC(=O)NC7=O)C8=O)CC6)C5)C4)cn3)CC2)cc1Cl` (stereo partly drawn) [Compound 167, N-((1r,4r)-4-(3-chloro-4-cyanophenoxy)cyclohexyl)-5-(7-(1-(2-(2,6-dioxopiperidin-3-yl)-6-fluoro-1,3-dioxoisoindolin-5-yl)piperidine-4-yl)-2,7-diazaspiro[4.4]nonan-2-yl)pyrazine-2-carboxamide], the inhibition (in general, the percentage by which the read-out fell short of the control) at 0.1 µM lay within 50 to 79%. Still for that read-out and setting: the result for `N#Cc1ccc(O[C@H]2CC[C@H](N3Cc4nc(NC5CCN(CC6CCN(c7ccc8c(c7)C(=O)N(C7CCC(=O)NC7=O)C8=O)CC6)CC5)ccc4C3=O)CC2)cc1Cl` (stereo partly drawn) [Compound 172] reads less than 25%; that for `N#Cc1ccc(O[C@H]2CC[C@H](N3Cc4nc(N5CCC(CN6CCC(Nc7ccc8c(c7)C(=O)N(C7CCC(=O)NC7=O)C8=O)CC6)CC5)ccc4C3=O)CC2)cc1Cl` (stereo partly drawn) [Compound 173], less than 25%. The same measure, in the same setting: the result for `N#Cc1ccc(OC2C[C@@H]3CN(C(=O)c4cnc(N5CCC(CN6CCN(c7ccc8c(c7)C(=O)N(C7CCC(=O)NC7=O)C8=O)CC6)CC5)cn4)C[C@@H]3C2)cc1Cl` (stereo partly drawn) [Compound 174, 2-chloro-4-(((3aR,5r,6aS)-2-(5-(4-((4-(2-(2,6-dioxopiperidin-3-yl)-1,3-dioxoisoindolin-5-yl)piperazin-1-yl)methyl)piperidin-1-yl)pyrazine-2-carbonyl)octahydrocyclopenta[c]pyrrol-5-yl)oxy)benzonitrile] reads less than 25%; that for `N#Cc1ccc(O[C@H]2C[C@@H]3CN(C(=O)c4ccc(N5CCC(CN6CCN(c7ccc8c(c7)C(=O)N(C7CCC(=O)NC7=O)C8=O)CC6)CC5)nn4)C[C@@H]3C2)cc1Cl` (stereo partly drawn) [Compound 175, 2-chloro-4-(((3aR,5s,6aS)-2-(6-(4-((4-(2-(2,6-dioxopiperidin-3-yl)-1,3-dioxoisoindolin-5-yl)piperazin-1-yl)methyl)piperidin-1-yl)pyridazine-3-carbonyl)octahydrocyclopenta[c]pyrrol-5-yl)oxy)benzonitrile], less than 25%; that for `N#Cc1ccc(O[C@H]2CC[C@H](NC(=O)c3cnc(N4C[C@@H]5[C@@H](CN6CCN(c7cc8c(cc7F)C(=O)N(C7CCC(=O)NC7=O)C8=O)CC6)[C@@H]5C4)cn3)CC2)cc1Cl` (stereo partly drawn) [Compound 176, N-((1r,4R)-4-(3-chloro-4-cyanophenoxy)cyclohexyl)-5-((1R,5S,6S)-6-((4-(2-(2,6-dioxopiperidin-3-yl)-6-fluoro-1,3-dioxoisoindolin-5-yl)piperazin-1-yl)methyl)-3-azabicyclo[3.1.0]hexan-3-yl)pyrazine-2-carboxamide], 50 to 79%. Same read-out and setting: the result for `N#Cc1ccc(O[C@H]2CC[C@H](NC(=O)c3cnc(N4C[C@@H]5[C@@H](CN6CCN(c7ccc8c(c7)C(=O)N(C7CCC(=O)NC7=O)C8=O)CC6)[C@@H]5C4)cn3)CC2)cc1Cl` (stereo partly drawn) [Compound 177, N-((1r,4R)-4-(3-chloro-4-cyanophenoxy)cyclohexyl)-5-((1R,5S,6S)-6-((4-(2-(2,6-dioxopiperidin-3-yl)-1,3-dioxoisoindolin-5-yl)piperazin-1-yl)methyl)-3-azabicyclo[3.1.0]hexan-3-yl)pyrazine-2-carboxamide] reads 50 to 79%.

For `N#Cc1ccc(OC2CCC(NC(=O)c3ccc(N4C[C@@H]5C(CN6CCN(c7cc8c(cc7F)C(=O)N(C7CCC(=O)NC7=O)C8=O)CC6)[C@@H]5C4)nn3)CC2)cc1Cl` (stereo partly drawn) [Compound 178, N-((1r,4R)-4-(3-chloro-4-cyanophenoxy)cyclohexyl)-6-((1R,5S,6S)-6-((4-(2-(2,6-dioxopiperidin-3-yl)-6-fluoro-1,3-dioxoisoindolin-5-yl)piperazin-1-yl)methyl)-3-azabicyclo[3.1.0]hexan-3-yl)pyridazine-3-formamide], the “% degradation” value is listed as “B (79%-50%)”. As to `N#Cc1ccc(O[C@H]2CC[C@H](NC(=O)c3ccc(N4C[C@@H]5[C@@H](CN6CCN(c7ccc8c(c7)C(=O)N(C7CCC(=O)NC7=O)C8=O)CC6)[C@@H]5C4)nn3)CC2)cc1Cl` (stereo partly drawn) [Compound 179, N-((1r,4R)-4-(3-chloro-4-cyanophenoxy)cyclohexyl)-6-((1R,5S,6S)-6-((4-(2-(2,6-dioxopiperidin-3-yl)-1,3-dioxoisoindolin-5-yl)piperazin-1-yl)methyl)-3-azabicyclo[3.1.0]hexan-3-yl)pyridazine-3-formamide], the inhibition at 0.1 µM was in the range of 25 to 49%. `N#Cc1ccc(O[C@H]2CC[C@H](NC(=O)c3ccc(N4CCC(CN5CC6(CCN(c7cc8c(cc7F)C(=O)N(C7CCC(=O)NC7=O)C8=O)C6)C5)CC4)nn3)CC2)cc1Cl` (stereo partly drawn) [Compound 180, N-((1r,4r)-4-(3-chloro-4-cyanophenoxy)cyclohexyl)-6-(4-((6-(2-(2,6-dioxopiperidin-3-yl)-6-fluoro-1,3-dioxoisoindolin-5-yl)-2,6-diazaspiro[3.4]octan-2-yl)methyl)piperidin-1-yl)pyridazine-3-formamide]: the inhibition at 0.1 µM is greater than 80%. For the compound `CC1(C)C(NC(=O)c2ccc(N3C[C@@H]4C(CN5CCN(c6cc7c(cc6F)C(=O)N(C6CCC(=O)NC6=O)C7=O)CC5)[C@@H]4C3)nn2)C(C)(C)C1Oc1ccc(C#N)c(Cl)c1` (stereo partly drawn) [Compound 181, N-((1r,3R)-3-(3-chloro-4-cyanophenoxy)-2,2,4,4-tetramethylcyclobutyl)-6-((1R,5S,6S)-6-((4-(2-(2,6-dioxopiperidin-3-yl)-6-fluoro-1,3-dioxoisoindolin-5-yl)piperazin-1-yl)methyl)-3-azabicyclo[3.1.0]hexan-3-yl)pyridazine-3-formamide], the “% degradation” value is “B (79%-50%)”. Regarding `CC1(C)[C@H](NC(=O)c2cnc(N3C[C@@H]4[C@@H](CN5CCN(c6cc7c(cc6F)C(=O)N(C6CCC(=O)NC6=O)C7=O)CC5)[C@@H]4C3)cn2)C(C)(C)[C@H]1Oc1ccc(C#N)c(Cl)c1` (stereo partly drawn) [Compound 182, N-((1r,3R)-3-(3-chloro-4-cyanophenoxy)-2,2,4,4-tetramethylcyclobutyl)-5-((1R,5S,6S)-6-((4-(2-(2,6-dioxopiperidin-3-yl)-6-fluoro-1,3-dioxoisoindolin-5-yl)piperazin-1-yl)methyl)-3-azabicyclo[3.1.0]hexan-3-yl)pyrazine-2-carboxamide], the inhibition at 0.1 µM lay in the range of 50 to 79%. With `N#Cc1ccc(O[C@H]2CC[C@H](NC(=O)c3ccc(N4CCC5(CN(CC6CCN(c7cc8c(cc7F)C(=O)N(C7CCC(=O)NC7=O)C8=O)CC6)C5)C4)nn3)CC2)cc1Cl` (stereo partly drawn) [Compound 183, N-((1r,4r)-4-(3-chloro-4-cyanophenoxy)cyclohexyl)-6-(2-((1-(2-(2,6-dioxopiperidin-3-yl)-6-fluoro-1,3-dioxoisoindolin-5-yl)piperidine-4-yl)methyl)-2,6-diazaspiro[3.4]octan-6-yl)pyridazine-3-formamide], the inhibition at 0.1 µM is greater than 80%. Compound `N#Cc1ccc(O[C@H]2CC[C@H](NC(=O)c3ccc(N4CCC(CN5CCC6(C5)CN(c5cc7c(cc5F)C(=O)N(C5CCC(=O)NC5=O)C7=O)C6)CC4)nn3)CC2)cc1Cl` (stereo partly drawn) [Compound 184, N-((1r,4r)-4-(3-chloro-4-cyanophenoxy)cyclohexyl)-6-(4-((2-(2-(2,6-dioxopiperidin-3-yl)-6-fluoro-1,3-dioxoisoindolin-5-yl)-2,6-diazaspiro[3.4]octan-6-yl)methyl)piperidin-1-yl)pyridazine-3-formamide] gave an inhibition at 0.1 µM greater than 80%. `N#Cc1ccc(O[C@H]2CC[C@H](NC(=O)c3ccc(N4CCC(CN5CCC6(C5)CN(c5ccc7c(c5)C(=O)N(C5CCC(=O)NC5=O)C7=O)C6)CC4)nn3)CC2)cc1Cl` (stereo partly drawn) [Compound 185, N-((1r,4r)-4-(3-chloro-4-cyanophenoxy)cyclohexyl)-6-(4-((2-(2-(2,6-dioxopiperidin-3-yl)-1,3-dioxoisoindolin-5-yl)-2,6-diazaspiro[3.4]octan-6-yl)methyl)piperidin-1-yl)pyridazine-3-formamide] had an inhibition at 0.1 µM greater than 80%.
